Article PMC4287394 (Clinical cancer research : an official journal of the …, 2014)
“And” between values parts separate entries of the source, which are not always exact repeats. Identical values can stand only once.

Assay: Phase I safety: adverse events, DLT, MTD, RP2D
Assay type: in vivo, human
Conditions: for Patients with DLT (grade 3 maculopapular rash): 21/28 schedule
[1] = 15mg 21/28, 4 patients, all grades
[2] = 30mg 21/28, 3 patients, all grades
[3] = 45mg 21/28, 4 patients, all grades
[4] = 60mg 21/28, 4 patients, all grades
[5] = 80mg 21/28, 3 patients, all grades
[6] = 100mg 21/28, 5 patients, all grades
[7] = 130mg 21/28, 3 patients, all grades
[8] = 130mg 21/28, 3 patients, grade ≥3
[9] = 180mg 21/28, 3 patients, all grades
[10] = 245mg 21/28, 3 patients, all grades
[11] = 330mg 21/28, 7 patients, all grades
[12] = 330mg 21/28, 7 patients, grade ≥3
[13] = 330mg 28/28, 10 patients, all grades
[14] = 330mg 28/28, 10 patients, grade ≥3
[15] = 330mg once-daily 28/28, 10 patients
[16] = 340mg 28/28, 7 patients, all grades
[17] = 340mg 28/28, 7 patients, grade ≥3
[18] = 400mg 28/28, 1 patient, all grades
[19] = 450mg 21/28, 3 patients, all grades
[20] = 450mg 21/28, 3 patients, grade ≥3
[21] = all dose levels 21 or 28/28, 60 patients, all grades
[22] = all dose levels 21 or 28/28, 60 patients, grade ≥3

CS(=O)(=O)N1CCN(Cc2cc3nc(-c4cccc5[nH]ncc45)nc(N4CCOCC4)c3s2)CC1 [pictilisib, 2-(1H-indazol-4-yl)-6-(4-methanesulfonyl-piperazin-1-ylmethyl)-4-morpholin-4-yl-t hieno[3,2-d]pyrimidine]
0: Decreased appetite, no. of patients with treatment-related AE [1] | Diarrhea, no. of patients with treatment-related AE [1] | Fatigue, no. of patients with treatment-related AE [1] | Rash (all rash preferred terms), no. of patients with treatment-related AE [1] | Vomiting, no. of patients with treatment-related AE [1] | Xeroderma, no. of patients with treatment-related AE [1] | Decreased appetite, no. of patients with treatment-related AE [2] | Diarrhea, no. of patients with treatment-related AE [2] | Dysgeusia, no. of patients with treatment-related AE [2] | Fatigue, no. of patients with treatment-related AE [2] | Nausea, no. of patients with treatment-related AE [2] | Rash (all rash preferred terms), no. of patients with treatment-related AE [2] | Vomiting, no. of patients with treatment-related AE [2] | Xeroderma, no. of patients with treatment-related AE [2] | Decreased appetite, no. of patients with treatment-related AE [3] | Fatigue, no. of patients with treatment-related AE [3] | Nausea, no. of patients with treatment-related AE [3] | Rash (all rash preferred terms), no. of patients with treatment-related AE [3] | Vomiting, no. of patients with treatment-related AE [3] | Xeroderma, no. of patients with treatment-related AE [3] | Decreased appetite, no. of patients with treatment-related AE [4] | Dysgeusia, no. of patients with treatment-related AE [4] | Fatigue, no. of patients with treatment-related AE [4] | Rash (all rash preferred terms), no. of patients with treatment-related AE [4] | Xeroderma, no. of patients with treatment-related AE [4] | Decreased appetite, no. of patients with treatment-related AE [5] | Rash (all rash preferred terms), no. of patients with treatment-related AE [5] | Xeroderma, no. of patients with treatment-related AE [5] | Decreased appetite, no. of patients with treatment-related AE [6] | Dysgeusia, no. of patients with treatment-related AE [6] | Rash (all rash preferred terms), no. of patients with treatment-related AE [6] | Vomiting, no. of patients with treatment-related AE [6] | Xeroderma, no. of patients with treatment-related AE [6] | Decreased appetite, no. of patients with treatment-related AE [7] | Diarrhea, no. of patients with treatment-related AE [7] | Dysgeusia, no. of patients with treatment-related AE [7] | Fatigue, no. of patients with treatment-related AE [7] | Nausea, no. of patients with treatment-related AE [7] | Rash (all rash preferred terms), no. of patients with treatment-related AE [7] | Vomiting, no. of patients with treatment-related AE [7] | Xeroderma, no. of patients with treatment-related AE [7] | Decreased appetite, no. of patients with treatment-related AE [8] | Diarrhea, no. of patients with treatment-related AE [8] | Dysgeusia, no. of patients with treatment-related AE [8] | Fatigue, no. of patients with treatment-related AE [8] | Nausea, no. of patients with treatment-related AE [8] | Rash (all rash preferred terms), no. of patients with treatment-related AE [8] | Vomiting, no. of patients with treatment-related AE [8] | Xeroderma, no. of patients with treatment-related AE [8] | Nausea, no. of patients with treatment-related AE [9] | Vomiting, no. of patients with treatment-related AE [9] | Xeroderma, no. of patients with treatment-related AE [9] | Dysgeusia, no. of patients with treatment-related AE [10] | Rash (all rash preferred terms), no. of patients with treatment-related AE [10] | Vomiting, no. of patients with treatment-related AE [10] | Decreased appetite, no. of patients with treatment-related AE [12] | Diarrhea, no. of patients with treatment-related AE [12] | Dysgeusia, no. of patients with treatment-related AE [12] | Fatigue, no. of patients with treatment-related AE [12] | Nausea, no. of patients with treatment-related AE [12] | Vomiting, no. of patients with treatment-related AE [12] | Xeroderma, no. of patients with treatment-related AE [12] | Decreased appetite, no. of patients with treatment-related AE [14] | Dysgeusia, no. of patients with treatment-related AE [14] | Fatigue, no. of patients with treatment-related AE [14] | Nausea, no. of patients with treatment-related AE [14] | Vomiting, no. of patients with treatment-related AE [14] | Xeroderma, no. of patients with treatment-related AE [16] | Decreased appetite, no. of patients with treatment-related AE [17] | Diarrhea, no. of patients with treatment-related AE [17] | Dysgeusia, no. of patients with treatment-related AE [17] | Fatigue, no. of patients with treatment-related AE [17] | Nausea, no. of patients with treatment-related AE [17] | Rash (all rash preferred terms), no. of patients with treatment-related AE [17] | Vomiting, no. of patients with treatment-related AE [17] | Xeroderma, no. of patients with treatment-related AE [17] | Decreased appetite, no. of patients with treatment-related AE [18] | Diarrhea, no. of patients with treatment-related AE [18] | Dysgeusia, no. of patients with treatment-related AE [18] | Vomiting, no. of patients with treatment-related AE [18] | Xeroderma, no. of patients with treatment-related AE [18] | Diarrhea, no. of patients with treatment-related AE [19] | Decreased appetite, no. of patients with treatment-related AE [20] | Diarrhea, no. of patients with treatment-related AE [20] | Dysgeusia, no. of patients with treatment-related AE [20] | Fatigue, no. of patients with treatment-related AE [20] | Nausea, no. of patients with treatment-related AE [20] | Vomiting, no. of patients with treatment-related AE [20] | Xeroderma, no. of patients with treatment-related AE [20] | Decreased appetite, no. of patients with treatment-related AE [22] | Dysgeusia, no. of patients with treatment-related AE [22] | Fatigue, no. of patients with treatment-related AE [22] | Nausea, no. of patients with treatment-related AE [22] | Vomiting, no. of patients with treatment-related AE [22]
330 mg: Recommended Phase II dose (RP2D) (continuous once-daily oral dosing)
9: Nausea, no. of patients with treatment-related AE [13] | Any treatment-related adverse event, no. of patients [22]
21: Fatigue, no. of patients with treatment-related AE [21]
14: Decreased appetite, no. of patients with treatment-related AE [21] | Rash (all rash preferred terms), no. of patients with treatment-related AE [21]
2 of 3 and 2: Patients with DLT (grade 3 maculopapular rash) (450mg once-daily, 3 patients)
4: Fatigue, no. of patients with treatment-related AE [11] | Nausea, no. of patients with treatment-related AE [11] | Rash (all rash preferred terms), no. of patients with treatment-related AE [11] | Rash (all rash preferred terms), no. of patients with treatment-related AE [13] | Xeroderma, no. of patients with treatment-related AE [13] | Nausea, no. of patients with treatment-related AE [16] | Vomiting, no. of patients with treatment-related AE [16]
28: Nausea, no. of patients with treatment-related AE [21]
10: Any treatment-related adverse event, no. of patients [13]
well-tolerated: Tolerability (up to 330mg (21/28 schedule))
15: Vomiting, no. of patients with treatment-related AE [21]
70-80%: Body surface area covered by DLT maculopapular rash (450mg once-daily 21/28, 2 patients)
6: Decreased appetite, no. of patients with treatment-related AE [13] | Fatigue, no. of patients with treatment-related AE [13] | Any treatment-related adverse event, no. of patients [16]
no treatment-related deaths: Treatment-related deaths (all 60 patients)
2 weeks: Time to spontaneous resolution of DLT rash after treatment discontinuation (450mg once-daily 21/28)
5: Dysgeusia, no. of patients with treatment-related AE [13] | Rash (all rash preferred terms), no. of patients with treatment-related AE [22]
7: Any treatment-related adverse event, no. of patients [11] | Diarrhea, no. of patients with treatment-related AE [13]
1: Dysgeusia, no. of patients with treatment-related AE [1] | Nausea, no. of patients with treatment-related AE [1] | Any treatment-related adverse event, no. of patients [2] | Dysgeusia, no. of patients with treatment-related AE [3] | Diarrhea, no. of patients with treatment-related AE [4] | Diarrhea, no. of patients with treatment-related AE [5] | Dysgeusia, no. of patients with treatment-related AE [5] | Nausea, no. of patients with treatment-related AE [5] | Vomiting, no. of patients with treatment-related AE [5] | Diarrhea, no. of patients with treatment-related AE [6] | Fatigue, no. of patients with treatment-related AE [6] | Patients with grade 4 hyperglycemia (130mg) | Any treatment-related adverse event, no. of patients [7] | Any treatment-related adverse event, no. of patients [8] | Decreased appetite, no. of patients with treatment-related AE [9] | Diarrhea, no. of patients with treatment-related AE [9] | Dysgeusia, no. of patients with treatment-related AE [9] | Fatigue, no. of patients with treatment-related AE [9] | Rash (all rash preferred terms), no. of patients with treatment-related AE [9] | Decreased appetite, no. of patients with treatment-related AE [10] | Fatigue, no. of patients with treatment-related AE [10] | Nausea, no. of patients with treatment-related AE [10] | Xeroderma, no. of patients with treatment-related AE [10] | Dysgeusia, no. of patients with treatment-related AE [11] | Rash (all rash preferred terms), no. of patients with treatment-related AE [12] | Diarrhea, no. of patients with treatment-related AE [14] | Xeroderma, no. of patients with treatment-related AE [14] | Patients with grade 3 pneumonitis (340mg) | Diarrhea, no. of patients with treatment-related AE [16] | Rash (all rash preferred terms), no. of patients with treatment-related AE [16] | Any treatment-related adverse event, no. of patients [18] | Fatigue, no. of patients with treatment-related AE [18] | Nausea, no. of patients with treatment-related AE [18] | Rash (all rash preferred terms), no. of patients with treatment-related AE [18] | Decreased appetite, no. of patients with treatment-related AE [19] | Dysgeusia, no. of patients with treatment-related AE [19] | Xeroderma, no. of patients with treatment-related AE [19] | Diarrhea, no. of patients with treatment-related AE [22] | Xeroderma, no. of patients with treatment-related AE [22] | Patients with grade ≥3 hyperglycemia (whole study)
2: Any treatment-related adverse event, no. of patients [1] | Any treatment-related adverse event, no. of patients [3] | Diarrhea, no. of patients with treatment-related AE [3] | Any treatment-related adverse event, no. of patients [4] | Nausea, no. of patients with treatment-related AE [4] | Vomiting, no. of patients with treatment-related AE [4] | Fatigue, no. of patients with treatment-related AE [5] | Any treatment-related adverse event, no. of patients [9] | Diarrhea, no. of patients with treatment-related AE [10] | Decreased appetite, no. of patients with treatment-related AE [11] | Xeroderma, no. of patients with treatment-related AE [11] | Any treatment-related adverse event, no. of patients [12] | Any treatment-related adverse event, no. of patients [14] | Rash (all rash preferred terms), no. of patients with treatment-related AE [14] | Patients with grade 1 or 2 rash [15] | Patients with grade 3 rash (after the DLT-defining window) [15] | Dysgeusia, no. of patients with treatment-related AE [16] | Any treatment-related adverse event, no. of patients [17] | Fatigue, no. of patients with treatment-related AE [19] | Nausea, no. of patients with treatment-related AE [19] | Vomiting, no. of patients with treatment-related AE [19] | Any treatment-related adverse event, no. of patients [20] | Rash (all rash preferred terms), no. of patients with treatment-related AE [20]
8: Xeroderma, no. of patients with treatment-related AE [21]
1 of 7 and 1: Patients with DLT (grade 3 maculopapular rash) (330mg once-daily, 7 patients)
no DLT was observed: DLT on continuous schedule (28/28 schedule (330mg, 340mg, 400mg))
3: Any treatment-related adverse event, no. of patients [5] | Any treatment-related adverse event, no. of patients [6] | Nausea, no. of patients with treatment-related AE [6] | Any treatment-related adverse event, no. of patients [10] | Diarrhea, no. of patients with treatment-related AE [11] | Vomiting, no. of patients with treatment-related AE [11] | Vomiting, no. of patients with treatment-related AE [13] | Decreased appetite, no. of patients with treatment-related AE [16] | Fatigue, no. of patients with treatment-related AE [16] | Any treatment-related adverse event, no. of patients [19] | Rash (all rash preferred terms), no. of patients with treatment-related AE [19]
approximately 2 weeks: Time of presentation of DLT rash after commencement of daily dosing (450mg once-daily 21/28)
